According to ChEMBL document CHEMBL3046846, “Synthesis of N-Alkyl-2, 3-dimethyl-5-[N-(5-halo-2-methylphenyl)carbamoyl]-6-pyrazinecarboxamides and Their Herbicidal Activity” (J Pestic Sci, 1997):

Columns and labels:
Glycine max [1] = assay: Herbicidal activity against Glycine max (soybean) at 500 g/ha after 2 weeks; format: organism-based; conditions: in vivo, 336 h
Abutilon theophrasti [2] = assay: Herbicidal activity against Abutilon theophrasti (velvetleaf) at 250 g/ha after 2 weeks; format: functional
Veronica persica [3] = assay: Herbicidal activity against Veronica persica at 250 g/ha after 2 weeks; format: functional
Avena fatua [4] = assay: Herbicidal activity against Avena fatua at 250 g/ha after 2 weeks; format: functional
Glycine max [5] = assay: Herbicidal activity against Glycine max (soybean) at 5000 g/ha after 2 weeks; format: organism-based; conditions: in vivo, 336 h
Abutilon theophrasti [6] = assay: Herbicidal activity against Abutilon theophrasti (velvetleaf) at 500 g/ha after 2 weeks; format: functional
Echinochloa crus-galli [7] = assay: Herbicidal activity against Echinochloa crus-galli (barnyard grass) at 500 g/ha after 2 weeks; format: functional
Avena fatua [8] = assay: Herbicidal activity against Avena fatua at 5000 g/ha after 2 weeks; format: functional
Galium spurium [9] = assay: Herbicidal activity against Galium spurium var. echinospermon (Wally.) Hayek at 500 g/ha after 2 weeks; format: functional
Xanthium strumarium [10] = assay: Herbicidal activity against Xanthium strumarium (cocklebur) 250 g/ha after 2 weeks; format: functional
Galium spurium [11] = assay: Herbicidal activity against Galium spurium var. echinospermon (Wally.) Hayek at 5000 g/ha after 2 weeks; format: functional
Xanthium strumarium [12] = assay: Herbicidal activity against Xanthium strumarium (cocklebur) 5000 g/ha after 2 weeks; format: functional
Veronica persica [13] = assay: Herbicidal activity against Veronica persica at 500 g/ha after 2 weeks; format: functional
Glycine max [14] = assay: Herbicidal activity against Glycine max (soybean) at 250 g/ha after 2 weeks; format: organism-based; conditions: in vivo, 336 h
Abutilon theophrasti [15] = assay: Herbicidal activity against Abutilon theophrasti (velvetleaf) at 5000 g/ha after 2 weeks; format: functional
Veronica persica [16] = assay: Herbicidal activity against Veronica persica at 5000 g/ha after 2 weeks; format: functional
Triticum aestivum [17] = assay: Herbicidal activity against Triticum aestivum (wheat) at 5000 g/ha after 2 weeks; format: ADME, organism-based; conditions: in vivo, 336 h
Echinochloa crus-galli [18] = assay: Herbicidal activity against Echinochloa crus-galli (barnyard grass) at 5000 g/ha after 2 weeks; format: functional
Triticum aestivum [19] = assay: Herbicidal activity against Triticum aestivum (wheat) at 250 g/ha after 2 weeks; format: organism-based; conditions: in vivo, 336 h
Triticum aestivum [20] = assay: Herbicidal activity against Triticum aestivum (wheat) at 500 g/ha after 2 weeks; format: ADME, organism-based; conditions: in vivo, 336 h
Xanthium strumarium [21] = assay: Herbicidal activity against Xanthium strumarium (cocklebur) 500 g/ha after 2 weeks; format: functional
Echinochloa crus-galli [22] = assay: Herbicidal activity against Echinochloa crus-galli (barnyard grass) at 250 g/ha after 2 weeks; format: functional
Avena fatua [23] = assay: Herbicidal activity against Avena fatua at 500 g/ha after 2 weeks; format: functional
Galium spurium [24] = assay: Herbicidal activity against Galium spurium var. echinospermon (Wally.) Hayek at 250 g/ha after 2 weeks; format: functional
Triticum aestivum [25] = assay: Herbicidal activity against Triticum aestivum (wheat) at 140 g/ha after 2 weeks; format: organism-based; conditions: in vivo, 336 h
Galium spurium [26] = assay: Herbicidal activity against Galium spurium var. echinospermon (Wally.) Hayek at 140 g/ha after 2 weeks; format: functional
Glycine max [27] = assay: Herbicidal activity against Glycine max (soybean) at 140 g/ha after 2 weeks; format: organism-based; conditions: in vivo, 336 h
Abutilon theophrasti [28] = assay: Herbicidal activity against Abutilon theophrasti (velvetleaf) at 140 g/ha after 2 weeks; format: functional
Echinochloa crus-galli [29] = assay: Herbicidal activity against Echinochloa crus-galli (barnyard grass) at 140 g/ha after 2 weeks; format: functional
Veronica persica [30] = assay: Herbicidal activity against Veronica persica at 140 g/ha after 2 weeks; format: functional
Xanthium strumarium [31] = assay: Herbicidal activity against Xanthium strumarium (cocklebur) 140 g/ha after 2 weeks; format: functional
Avena fatua [32] = assay: Herbicidal activity against Avena fatua at 140 g/ha after 2 weeks; format: functional

SMILES | Activity (Glycine max [1]) | Activity (Abutilon theophrasti [2]) | Activity (Veronica persica [3]) | Activity (Avena fatua [4]) | Activity (Glycine max [5]) | Activity (Abutilon theophrasti [6]) | Activity (Echinochloa crus-galli [7]) | Activity (Avena fatua [8]) | Activity (Galium spurium [9]) | Activity (Xanthium strumarium [10]) | Activity (Galium spurium [11]) | Activity (Xanthium strumarium [12]) | Activity (Veronica persica [13]) | Activity (Glycine max [14]) | Activity (Abutilon theophrasti [15]) | Activity (Veronica persica [16]) | Activity (Triticum aestivum [17]) | Activity (Echinochloa crus-galli [18]) | Activity (Triticum aestivum [19]) | Activity (Triticum aestivum [20]) | further results
Cc1ccc(F)cc1NC(=O)c1nc(C)c(C)nc1C(=O)NC(C)(C)C | < 10% | <10% | <10% | <10% | < 10% | <10% | <10% | 95% | <10% | <10% | 10% | 95% | 70% | < 10% | 95% | 95% | 30% | 70% | < 10% | < 10% | Activity (Xanthium strumarium [21]): <10%; Activity (Echinochloa crus-galli [22]): <10%; Activity (Avena fatua [23]): <10%; Activity (Galium spurium [24]): <10%
CC(C)C1(C)N=C(c2nc3ccccc3cc2C(=O)O)NC1=O (centres undefined) [IMAZAQUIN] | – | – | – | – | – | – | – | – | – | – | – | – | – | – | – | – | – | – | – | – | Activity (Triticum aestivum [25]): 70%; Activity (Galium spurium [26]): 70%; Activity (Glycine max [27]): < 10%; Activity (Abutilon theophrasti [28]): 30%; Activity (Echinochloa crus-galli [29]): 30%; Activity (Veronica persica [30]): 50%; Activity (Xanthium strumarium [31]): 95%; Activity (Avena fatua [32]): 50%
Cc1ccc(F)cc1NC(=O)c1nc(C)c(C)nc1C(=O)NCC(C)C | < 10% | 30% | 95% | <10% | < 10% | 70% | <10% | 50% | <10% | <10% | 30% | 95% | 95% | < 10% | 95% | 95% | 30% | 30% | 10% | 10% | Activity (Xanthium strumarium [21]): 95%; Activity (Echinochloa crus-galli [22]): <10%; Activity (Avena fatua [23]): 10%; Activity (Galium spurium [24]): <10%
Cc1ccc(F)cc1NC(=O)c1nc(C)c(C)nc1C(=O)NC(C)C | < 10% | 50% | 70% | <10% | < 10% | 70% | 30% | 30% | <10% | 10% | 70% | 70% | 95% | < 10% | 50% | 95% | 30% | 50% | < 10% | 10% | Activity (Xanthium strumarium [21]): 70%; Activity (Echinochloa crus-galli [22]): <10%; Activity (Avena fatua [23]): 30%; Activity (Galium spurium [24]): <10%
CCC(C)NC(=O)c1nc(C)c(C)nc1C(=O)Nc1cc(Cl)ccc1C (racemic) | < 10% | <10% | 70% | <10% | < 10% | <10% | 10% | 50% | <10% | <10% | 95% | 95% | 70% | < 10% | 95% | 95% | 70% | 95% | < 10% | < 10% | Activity (Xanthium strumarium [21]): <10%; Activity (Echinochloa crus-galli [22]): <10%; Activity (Avena fatua [23]): <10%; Activity (Galium spurium [24]): <10%
